The source of these data is ChEMBL document CHEMBL5726363, “Indoline compounds as aldosterone synthase inhibitors” (2017).

This assay concerns the target T1, Cytochrome P450 11B2, mitochondrial (Homo sapiens, UniProt P19099).
T1 sequence (P19099 whole entry): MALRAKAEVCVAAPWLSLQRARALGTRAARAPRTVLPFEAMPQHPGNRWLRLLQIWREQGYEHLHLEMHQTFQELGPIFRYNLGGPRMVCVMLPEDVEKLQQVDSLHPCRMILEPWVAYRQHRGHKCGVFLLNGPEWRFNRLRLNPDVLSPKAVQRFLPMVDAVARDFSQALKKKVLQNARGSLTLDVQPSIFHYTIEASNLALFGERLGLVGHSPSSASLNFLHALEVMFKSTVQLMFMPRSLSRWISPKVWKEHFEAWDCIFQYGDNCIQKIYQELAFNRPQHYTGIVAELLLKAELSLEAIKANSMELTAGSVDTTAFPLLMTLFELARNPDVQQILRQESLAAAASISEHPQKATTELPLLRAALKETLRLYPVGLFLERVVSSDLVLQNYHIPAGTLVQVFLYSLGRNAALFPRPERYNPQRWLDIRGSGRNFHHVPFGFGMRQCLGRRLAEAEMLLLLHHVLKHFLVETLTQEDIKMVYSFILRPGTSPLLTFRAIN
The assay can be described thus: HTRF-Based Assay : V79 cell lines stably expressing the either the human CYP11B2 or the human CYP11B1 enzyme were generated using a standard transfection protocol. V79 cells were transfected with plasmids pTriEx3-Hygro-hCyp11B2 or pTriEx3-Hygro-hCyp11B1 using Lipofectamine2000 reagent. V79 cells that stably express the human CYP11B2 or human CYP11B1 enzyme were selected for and maintained in DMEM supplemented with 10% FBS and 400 μg/mL hygromycin for 2 weeks. Single cell clones were generated by infinite dilution in DMEM supplemented with 10% FBS and 400 μg/mL hygromycin until single colonies were obtained. Clones V79-hCYP11B2-CLE9 and V79-hCYP11B1-CL8C7, were determined to produce the most aldosterone and cortisol, respectively, and were selected for inhibitor screening. For testing of inhibitors, cells were harvested at 80% confluency with 0.05% Trypsan-EDTA, washed once in PBS, and reconstituted in DMEM+0.1% BSA media at a cell concentration of 600,000 cells/mL for the CYP11B2 assay and 280,000 cells/mL for the CYP11B1 assay. 25 μL of cells were added to a 384 well tissue culture treated plate and mixed with 0.3 μL of inhibitor or DMSO (1% final DMSO concentration) for 1 hour at 37° C., 5% CO2. After pre-incubation with inhibitor, the reaction was initiated by adding 5 μL of substrate (final concentration of 125 nM 11-deoxycorticosterone for the CYP11B2 assay or 250 nM 11-deoxycortisol for the CYP11B1 assay). The reaction was carried out for 3 hours at 37° C., 5% CO2 and was stopped by harvesting the supernatants. The amount of product in the supernatant (aldosterone for CYP11B2 assay and cortisol for the CYP11B1 assay) was measured using HTRF-based assay kit (Aldosterone HTRF-CisBio#64ALDPEB, Cortisol HTRF-CisBio #63IDC002-CORT). For orientation: In TR-FRET formats the signal depends on donor and acceptor labels being close together.
In general, IC50 refers to the concentration at which inhibition is half-maximal. Take `CC(C)C(=O)N1CCc2cc(-c3cncc4ccccc34)ccc21`: the IC50 stood at 30 nM.
The value for `O=C(N1CCc2cc(-c3cncc(F)c3)cc(F)c21)C(F)(F)F` was 17.4 nM; that for `CC(=O)N1CCc2cc(-c3cncc(F)c3C)cc(Cl)c21` was 1.4 nM.
Consider `O=C(N1CCc2cc(-c3cncc(F)c3)cc(Cl)c21)C(F)(F)F`, for which the IC50 stood at 10.6 nM.
As for `CC(=O)N1CCc2cc(-c3cnccc3C)cc(F)c21`, the figure is 0.2 nM.
